Reference: patent US10253071B2, “Selectin inhibitors, composition, and uses related thereto” (Beth Israel Deaconess Medical Center, Inc., priority 2014, dated 2019)
Like-named read-outs stand apart in the source and are kept apart here. Square brackets hold non-standard residues; d marks the D form. Peptide text beside a SMILES is read from it. * marks the point of attachment. X1 = CC(=O)N[C@@H]1[C@@H](O[C@@H]2O[C@H](CO)[C@H](O)[C@H](O)[C@H]2O)[C@@H](O)[C@@H](CO[C@@H]2O[C@H](CO)[C@@H](O[C@@H]3O[C@H](CO)[C@H](O)[C@H](O[C@]4(C(=O)O)C[C@H](O)[C@@H](NC(C)=O)[C@H]([C@H](O)[C@H](O)CO)O4)[C@H]3O)[C@H](O[C@@H]3O[C@@H](C)[C@@H](O)[C@@H](O)[C@@H]3O)[C@H]2NC(C)=O)O[C@@H]1*; Phe(4-CH2SO3H) = N[C@@H](Cc1ccc(CS(=O)(=O)O)cc1)C(=O)O; Mca = COc1ccc2c(CC(=O)*)cc(=O)oc2c1

Legend:
L-selectin (L-sel-Ig) = target: T1, L-selectin (L-sel-Ig) (Homo sapiens, UniProt P14151); test: Biacore binding assay, L-selectin; conditions: compared with P-selectin
T1 sequence (P14151 39-372): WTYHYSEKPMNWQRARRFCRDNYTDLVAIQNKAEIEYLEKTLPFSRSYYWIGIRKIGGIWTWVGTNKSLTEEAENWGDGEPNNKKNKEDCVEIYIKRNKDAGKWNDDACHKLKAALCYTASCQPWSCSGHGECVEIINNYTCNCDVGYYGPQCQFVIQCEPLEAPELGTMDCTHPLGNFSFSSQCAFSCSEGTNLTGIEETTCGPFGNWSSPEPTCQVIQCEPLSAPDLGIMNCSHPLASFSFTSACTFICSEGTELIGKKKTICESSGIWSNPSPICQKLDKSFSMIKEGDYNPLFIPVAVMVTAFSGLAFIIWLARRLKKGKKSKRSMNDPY
Experimental: (§1) Dissociation constants (Kd) were determined using a Biacore binding assay after initial capture of biotinylated GS(n)P-6 onto streptavidin-coated sensor chips followed by flow through of P-, L- or E-sel-Ig (2.5 to 60 μg/mL). […] The Kd of GSnP-6 to murine P-selectin was ˜9-fold lower than to human P-selectin.

human P-selectin = target: T2, human P-selectin (Homo sapiens, UniProt P16109); test: Biacore binding assay, human P-selectin
T2 sequence (P16109 42-830): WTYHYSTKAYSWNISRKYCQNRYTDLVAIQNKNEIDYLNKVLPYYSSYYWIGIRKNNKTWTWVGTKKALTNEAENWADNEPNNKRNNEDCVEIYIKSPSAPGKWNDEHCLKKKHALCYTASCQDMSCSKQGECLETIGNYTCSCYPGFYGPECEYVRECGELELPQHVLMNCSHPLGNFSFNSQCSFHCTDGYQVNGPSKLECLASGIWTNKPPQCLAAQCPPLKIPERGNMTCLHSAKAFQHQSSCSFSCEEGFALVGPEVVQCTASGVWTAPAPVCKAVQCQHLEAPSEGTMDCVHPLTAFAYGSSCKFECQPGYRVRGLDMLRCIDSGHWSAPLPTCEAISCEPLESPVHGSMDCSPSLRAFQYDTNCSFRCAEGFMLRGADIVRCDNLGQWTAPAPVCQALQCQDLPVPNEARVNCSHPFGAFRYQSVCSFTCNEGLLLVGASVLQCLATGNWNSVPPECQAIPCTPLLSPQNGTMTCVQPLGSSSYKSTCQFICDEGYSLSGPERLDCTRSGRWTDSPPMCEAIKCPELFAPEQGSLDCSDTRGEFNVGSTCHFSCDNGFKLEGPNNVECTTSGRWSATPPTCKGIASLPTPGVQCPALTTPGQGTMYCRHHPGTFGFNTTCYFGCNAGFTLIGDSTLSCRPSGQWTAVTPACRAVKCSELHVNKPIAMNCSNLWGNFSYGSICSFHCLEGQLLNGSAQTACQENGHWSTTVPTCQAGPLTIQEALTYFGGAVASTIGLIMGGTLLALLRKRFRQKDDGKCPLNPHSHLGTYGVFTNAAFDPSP
Experimental: Bound peptides were detected using Alexa-488 labeled anti-human IgG antibody (5 μg/mL). Three lectins RCA-1, AAL, and PNA were used to confirm the sequence of enzymatic steps. Monoclonal antibodies CHO131, PSG2 antibody and PL-1 were used to confirm the presence of SLex, tyrosine sulfates, and the peptide sequence, respectively. Biacore binding analysis to human P-selectin with observed rate constants for (D) GSnP-6, kon 3.1×10^5 M^−1s^−1, koff 6.9×10^3 M^−1s^−; GSn2P-6, kon6.4×10^5 M^−1s^−1, koff 6.8×10^3 M^−1s. Biacore binding analysis to mouse P-selectin with observed rate constants for (E) GsnP-6, kon 4.9×10^4 M^−1s^−1, koff 8.0×10^3 M^−1s^−; GSn2P-6 kon 5.3×10^4 M^−1s^−1, koff 9.0×10^3 M^−1s. (F) Temperature- and pH-dependent stability studies of GSnP-6.
as §1

[1] = target: T3, Recombinant mouse L-selectin Fc chimera (Mus musculus, UniProt P18337); test: Flow cytometry, inhibition of mouse L-selectin Fc chimera binding to murine neutrophils; assay type: cell-based; conditions: chimera 2 μg/mL, read-out: IC50, PSGL-1/L-selectin interactions, murine neutrophils
T3 sequence (P18337 39-372): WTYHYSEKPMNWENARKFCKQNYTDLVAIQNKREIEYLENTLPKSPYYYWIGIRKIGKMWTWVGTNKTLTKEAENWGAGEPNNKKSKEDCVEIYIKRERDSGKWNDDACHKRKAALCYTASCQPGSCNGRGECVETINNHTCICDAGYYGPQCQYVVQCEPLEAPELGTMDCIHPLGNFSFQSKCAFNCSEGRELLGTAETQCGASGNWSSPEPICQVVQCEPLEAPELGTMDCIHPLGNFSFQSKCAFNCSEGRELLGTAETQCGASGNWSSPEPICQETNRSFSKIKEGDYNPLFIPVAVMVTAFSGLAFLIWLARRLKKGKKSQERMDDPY
Experimental: (§2) Flow cytometry was used to characterize the ability of GSnP-6 to block binding of selectin-IgG chimeras to murine and human leukocytes. Recombinant mouse P- or L-selectin Fc chimera (2 μg/mL) was incubated with murine neutrophils and GSnP-6 (0-30 μM). Likewise, recombinant human P-selectin or L-selectin Fc chimera were incubated with human peripheral blood neutrophils and monocytes, as well as the human U937 cell line in the presence of GSnP-6 (0-30 μM). Binding of selectin-IgG chimeras was detected with PE-conjugated anti-IgG antibody, quantified as mean fluorescent intensity, and plotted as percent inhibition. Specificity was confirmed with selectin-specific blocking antibodies.

[2] = target: T4, recombinant human P-selectin Fc chimera (Homo sapiens, UniProt P16109); test: Flow cytometry, inhibition of human P-selectin Fc chimera binding to human leukocytes; assay type: cell-based
T4 sequence (P16109 42-830): T2 sequence (P16109 42-830)
Experimental: as §2

With COc1ccc2c(CC(=O)NCCCC[C@H](N)C(=O)N[C@@H](CCC(=O)O)C(=O)N[C@@H](Cc3ccc(CS(=O)(=O)O)cc3)C(=O)N[C@@H](CCC(=O)O)C(=O)N[C@@H](Cc3ccc(CS(=O)(=O)O)cc3)C(=O)N[C@@H](CC(C)C)C(=O)N[C@@H](CC(=O)O)C(=O)N[C@@H](Cc3ccc(CS(=O)(=O)O)cc3)C(=O)N[C@@H](CC(=O)O)C(=O)N[C@@H](Cc3ccccc3)C(=O)N[C@@H](CC(C)C)C(=O)N3CCC[C@H]3C(=O)N[C@@H](CCC(=O)O)C(=O)N[C@H](C(=O)N[C@@H](CCC(=O)O)C(=O)N3CCC[C@H]3C(=O)N[C@@H](CC(C)C)C(=O)O)[C@@H](C)O[C@H]3O[C@H](CO[C@@H]4O[C@H](CO)[C@@H](O[C@@H]5O[C@H](CO)[C@H](O)[C@H](O[C@]6(C(=O)O)C[C@H](O)[C@@H](NC(C)=O)[C@H]([C@H](O)[C@H](O)CO)O6)[C@H]5O)[C@H](O[C@@H]5O[C@@H](C)[C@@H](O)[C@@H](O)[C@@H]5O)[C@H]4NC(C)=O)[C@H](O)[C@H](O[C@@H]4O[C@H](CO)[C@H](O)[C@H](O)[C@H]4O)[C@H]3NC(C)=O)cc(=O)oc2c1 [GSnP-6] (H-K(Mca)E[Phe(4-CH2SO3H)]E[Phe(4-CH2SO3H)]LD[Phe(4-CH2SO3H)]DFLPET(X1)EPL-OH) as the molecule, how does the “apparent affinity to L-selectin” value (L-selectin (L-sel-Ig)) read?
Its value is “even lower apparent affinity”.

And the koff (human P-selectin; Biacore observed rate constant)?
Its koff is 0.0069 s⁻¹.

And the kon (human P-selectin; Biacore observed rate constant)?
Its kon is 310000 M⁻¹ s⁻¹.

What about the Kd (human P-selectin; biotinylated GS(n)P-6 captured on streptavidin chip, P-sel-Ig 2.5 to 60 μg/mL, read-out: Dissociation constant (Kd) to human P-selectin) of the same molecule?
Its Kd is 0.022 µM.

And the IC50 [1]?
The IC50 was over 50 µM.

What about the IC50 ([2]; human U-937 cells, GSnP-6 0-30 μM, read-out: IC50, P-selectin dependent interactions, human U-937 cells) of the same molecule?
Its IC50 is about 8 µM.

And the IC50 ([2]; human peripheral blood monocytes, read-out: IC50, P-selectin dependent interactions, human monocytes)?
Its IC50 is about 30 µM.

What about the IC50 ([2]; human peripheral blood neutrophils (PMN), read-out: IC50, P-selectin dependent interactions, human PMN) of the same molecule?
Its IC50 is about 30 µM.
